Read-outs that look alike come from different tables or passages of the source.
Assays:
[1] = tested on: L. donovani promastigotes; assay: Growth inhibition of L. donovani promastigotes (resazurin-based assay); assay type: cell-based, Leishmania donovani; parameters: Inhibition at both 50 and 25 µM concentrations: unit: %; settings: for inhibition at 25 µM / inhibition at 50 µM / IC50: Leishmania donovani, 72 h, incubation 3 days; for inhibition at 25 µM / inhibition at 50 µM: relative to control; for inhibition at 25 µM: read-out: % Inhibition at 25 µM concentration; for inhibition at 50 µM: read-out: % Inhibition at 50 µM concentration; for IC50: extracellular promastigotes, duplicates, read-out: IC50 ± SD, growth of L. donovani promastigotes; for Potency against promastigotes (in words): dose-response evaluation
Protocol: Out of 20 known Leishmania species pathogenic to humans, L. donovani, which causes visceral leishmaniasis, is the most fatal. Consequently, an in vitro model of L. donovani promastigotes[26] was selected to evaluate the activity of the synthesised pyrrolidine-based 3-deoxysphingosylphosphorylcholine analogs 1e–i, 2a–f, 3a–f at two concentration (50 and 25 µM) employing miltefosine and erufosine (ErPC; erucylphosphocholine) as reference standards using a resazurin-based assay.
For comparison, erufosine and miltefosine were used as reference standards.
L. donovani MHOM/SD/62/1S-CL2D parasites were cultured as promastigotes at 28 °C in M199 medium (Sigma-Aldrich, St. Louis, MO, USA) with 40 mM HEPES, 0.1 mM adenine, 0.0001% biotin, and 4.62 mM NaHCO3 supplemented with 10% foetal bovine serum (FBS, Gibco, Carlsbad, CA, USA), […] penicillin (Gibco), and 100 µg/mL streptomycin (Gibco). Parasites were sub-cultured every 3 or 4 days and maintained for 10 passages.
The plates were analysed using a Victor3TM plate reader (PerkinElmer, Inc., Waltham, MA, USA) at 590 nm (emission) and 530 nm (excitation). Miltefosine and erufosine were used as the reference standards. All measured and calculated values are the averages of duplicates. The dose-response curves were generated by GraphPad Prism 6 software using a sigmoidal dose-response equation with a variable hill slope option.

THP-1 cells = assay: Cytotoxicity against THP-1 host cells; assay type: cell-based, human; settings: CC50 THP-1 divided by IC50 intracellular L. donovani
Source text: (§1) As the extracellular promastigotes form represents the insect stage of the parasite, assessment of activity is needed to confirm activity against the intracellular amastigotes form, which is the human host form (mammalian host form). In addition, a preliminary assessment of selectivity and safety might be desirable to evaluate the quality of hit compounds. Accordingly, compound 1e and its enantiomer; 1a, in parallel with standard drugs miltefosine and erufosine were submitted for evaluation in intracellular amastigotes model using infected THP-1 cells; human monocytic cell line derived from an acute monocytic leukaemia. In addition, cytotoxicity of tested compounds and standards were evaluated against THP-1 cells and normal human embryonic kidney cells; HEK293T to evaluate selectivity and safety. PMA-treated THP-1 human monocytic cells were seeded at 0.8 × 10^4 cells per well in a 384-well culture plate (Greiner Bio-One, Kremsmünster, Austria) in RPMI-1640 complete medium supplemented with 10% FBS. After 48 h of incubation at 37 °C in the presence of 5% CO2, infected THP-1 cells were treated with miltefosine (at 80 µM, positive control), and tested compounds (at 200 µM). The negative control consisted of THP-1 infected with the parasite with only 0.5% DMSO. After 72 h, the cells that were infected and treated with the drug were washed with serum-free RPMI-1640 medium. The cells and parasites were stained using 5 µM DAPI and 4% PFA. The images were acquired based on reading using an Operetta® automated microscope (PerkinElmer, Inc., Waltham, MA 02451, USA). They were further analysed using Columbus^TM (PerkinElmer, Inc. Waltham, MA, USA) software to quantify parasite numbers, and host cell numbers. In brief, large-sized nucleus of host cells was first detected using DAPI signal and the host cell boundary masking was performed using the low-intensity signals from cytosols. Then the small-sized nucleus signal by DAPI was used to identify parasites within the area of the masked host cell. The DRC results were further assessed in a dose-dilution manner (two-fold serial dilution for 10 points starting from 200 µM).

[2] = Cytotoxicity against THP-1 host cells; assay type: cell-based, human; settings: human, PMA-treated THP-1 monocytic cells infected with the parasite; THP-1 cells, duplicates; read-out: THP-1 cell CC50 ± SD
Source text: as §1

[3] = Cytotoxicity against HEK293T cells (resazurin); assay type: cell-based; settings: human, duplicates, read-out: HEK293T CC50 ± SD
Source text: As the extracellular promastigotes form represents the insect stage of the parasite, assessment of activity is needed to confirm activity against the intracellular amastigotes form, which is the human host form (mammalian host form). In addition, a preliminary assessment of selectivity and safety might be desirable to evaluate the quality of hit compounds. Accordingly, compound 1e and its enantiomer; 1a, in parallel with standard drugs miltefosine and erufosine were submitted for evaluation in intracellular amastigotes model using infected THP-1 cells; human monocytic cell line derived from an acute monocytic leukaemia. In addition, cytotoxicity of tested compounds and standards were evaluated against THP-1 cells and normal human embryonic kidney cells; HEK293T to evaluate selectivity and safety. Cytotoxicity against HEK293T cell growth was assayed by measuring the conversion of resazurin to resorufin. The assays were performed in 384-well plates that were seeded with HEK293T cells (1000 cells per well). After seeding, the cells were exposed to the compounds for 3 days. Resazurin sodium salt (200 µM; R7017; Sigma-Aldrich, St. Louis, MO, USA) was then added, and the samples were incubated for 5 h. After incubation, the […] were fixed using 4% paraformaldehyde, and the plates were analysed using a Victor3TM plate reader (PerkinElmer, Inc., Waltham, MA, USA) at 590 nm (emission) and 530 nm (excitation). Miltefosine and saponin were used as the reference drugs for the HEK293T growth inhibition.

[4] = tested on: intracellular L. donovani amastigotes; assay: Intracellular L. donovani amastigotes in infected THP-1 cells (image-based); assay type: cell-based; settings: Leishmania donovani, 72 h, duplicates, read-out: Intracellular L. donovani IC50 ± SD
Source text: as §1

L. major promastigotes = tested on: L. major promastigotes; parameters: method as in PMID 21267500; settings: cited from earlier work
[5] = tested on: L. donovani promastigotes; parameters: method as in PMID 22506086; settings: literature value; read-out: Reported IC50 against L. donovani promastigotes; cited from earlier work

Row | SMILES | inhibition at 25 µM [1] [%] | inhibition at 50 µM [1] [%] | IC50 [1] [µM] | Activity at both 50 and 25 µM concentrations (in words) [1] | further results
1 | CCCCCCCCCCCCCCCC(=O)N1CCC[C@@H]1COP(=O)([O-])OCC[N+](C)(C)C [Compound 1a] | 107 | 108 | 52.6 ± 1.44 | – | Inhibition at both 50 and 25 µM concentrations [1]: ≥ 100; Selectivity index (THP-1 cells): 2.2; CC50 at 72 h [2]: 25.3 ± 3.56 µM; CC50 at 3 days [3]: 30.6 ± 2.31 µM; IC50 [4]: 11.3 ± 1.81 µM
2 | CCCCCC/C=C\CCCCCCCC(=O)N1CCC[C@@H]1COP(=O)([O-])OCC[N+](C)(C)C [Compound 1b] | 108 | 109 | 66.1 ± 3.61 | – | Inhibition at both 50 and 25 µM concentrations [1]: ≥ 100
3 | CCCCCCCC/C=C\CCCCCCCC(=O)N1CCC[C@@H]1COP(=O)([O-])OCC[N+](C)(C)C [Compound 1c] | 10 | 51 | – | – | –
4 | CCCCCCCC/C=C\CCCCCCCCCCCC(=O)N1CCC[C@@H]1COP(=O)([O-])OCC[N+](C)(C)C [Compound 1d] | 107 | 108 | 46.65 ± 0.45 | – | Inhibition at both 50 and 25 µM concentrations [1]: ≥ 100
5 | CCCCCCCCCCCCCCCC(=O)N1CCC[C@H]1COP(=O)([O-])OCC[N+](C)(C)C [Compound 1e] | 107 | 107 | 28.3 ± 1.38 | highly active | Selectivity index (THP-1 cells): 1.1; CC50 at 72 h [2]: 15.8 ± 3.23 µM; CC50 at 3 days [3]: 45.1 ± 5.01 µM; IC50 [4]: 14.3 ± 2.03 µM
6 | CCCCCCCC/C=C\CCCCCCCC(=O)N1CCC[C@H]1COP(=O)([O-])OCC[N+](C)(C)C [Compound 1f] | 65 | 108 | – | – | –
7 | CCCCCCCC/C=C\CCCCCCCCCCCC(=O)N1CCC[C@H]1COP(=O)([O-])OCC[N+](C)(C)C [Compound 1g] | 110 | 109 | 68.47 ± 0.04 | highly active | –
8 | CCCCC/C=C\C/C=C\CCCCCCCC(=O)N1CCC[C@H]1COP(=O)([O-])OCC[N+](C)(C)C [Compound 1h] | -18 | 0 | – | completely inactive | –
9 | CC/C=C\C/C=C\C/C=C\CCCCCCCC(=O)N1CCC[C@H]1COP(=O)([O-])OCC[N+](C)(C)C [Compound 1i] | -16 | 1 | – | completely inactive | –
10 | CCCCCCCCCCCCCCCC(=O)N1CC[C@H](COP(=O)([O-])OCC[N+](C)(C)C)C1 [Compound 2a] | 107 | 108 | 54.6 ± 2.02 | highly active | –
11 | CCCCCC/C=C\CCCCCCCC(=O)N1CC[C@H](COP(=O)([O-])OCC[N+](C)(C)C)C1 [Compound 2b] | 27 | 98 | – | – | –
12 | CCCCCCCC/C=C\CCCCCCCC(=O)N1CC[C@H](COP(=O)([O-])OCC[N+](C)(C)C)C1 [Compound 2c] | -19 | 107 | – | – | –
13 | CCCCCCCC/C=C\CCCCCCCCCCCC(=O)N1CC[C@H](COP(=O)([O-])OCC[N+](C)(C)C)C1 [Compound 2d] | 107 | 109 | > 100 | highly active | Potency against promastigotes (in words) [1]: poor potency
14 | CCCCC/C=C\C/C=C\CCCCCCCC(=O)N1CC[C@H](COP(=O)([O-])OCC[N+](C)(C)C)C1 [Compound 2e] | 34 | 101 | – | – | –
15 | CC/C=C\C/C=C\C/C=C\CCCCCCCC(=O)N1CC[C@H](COP(=O)([O-])OCC[N+](C)(C)C)C1 [Compound 2f] | 0 | 9 | – | completely inactive | –
16 | CCCCCCCCCCCCCCCC(=O)N1CC[C@@H](OP(=O)([O-])OCC[N+](C)(C)C)C1 [Compound 3a] | 108 | 109 | > 100 | highly active | Potency against promastigotes (in words) [1]: weak potency
17 | CCCCCC/C=C\CCCCCCCC(=O)N1CC[C@@H](OP(=O)([O-])OCC[N+](C)(C)C)C1 [Compound 3b] | 67 | 90 | – | – | –
18 | CCCCCCCC/C=C\CCCCCCCC(=O)N1CC[C@@H](OP(=O)([O-])OCC[N+](C)(C)C)C1 [Compound 3c] | 106 | 106 | > 100 | maintained high activity | Potency against promastigotes (in words) [1]: weak potency
19 | CCCCCCCC/C=C\CCCCCCCCCCCC(=O)N1CC[C@@H](OP(=O)([O-])OCC[N+](C)(C)C)C1 [Compound 3d] | 107 | 104 | > 100 | highly active | Potency against promastigotes (in words) [1]: poor potency
20 | CCCCC/C=C\C/C=C\CCCCCCCC(=O)N1CC[C@@H](OP(=O)([O-])OCC[N+](C)(C)C)C1 [Compound 3e] | 0 | 69 | – | – | –
21 | CC/C=C\C/C=C\C/C=C\CCCCCCCC(=O)N1CC[C@@H](OP(=O)([O-])OCC[N+](C)(C)C)C1 [Compound 3f] | -14 | 1 | – | completely inactive | –
22 | CCCCCCCCCCCCC/C=C/C[C@@H](N)CO [Compound 26an] | – | – | – | – | Cytotoxicity against L. major promastigotes (in words) (L. major promastigotes): significant cytotoxicity
23 | CCCCCCCC/C=C\CCCCCCCCCCCCOP(=O)([O-])OCC[N+](C)(C)C [Erufosine, erucylphosphocholine, reference compound] | 106 | 108 | 9.75 ± 2.41 | – | IC50 [5]: 13.3 µM; Selectivity index (THP-1 cells): 1.1; CC50 at 72 h [2]: 3.94 ± 1.02 µM; CC50 at 3 days [3]: 40.8 ± 3.36 µM; IC50 [4]: 3.61 ± 1.05 µM
24 | CCCCCCCCCCCCCCCCOP(=O)([O-])OCC[N+](C)(C)C [Miltefosine, miltefosine, reference compound] | 100 | 100 | 4.94 ± 0.47 | – | IC50 [5]: 3.1 µM; Selectivity index (THP-1 cells): 16.0; CC50 at 72 h [2]: 40.8 ± 3.32 µM; CC50 at 3 days [3]: > 200 µM; IC50 [4]: 2.55 ± 0.63 µM
